≈ marks a conversion by molar mass, not a printed value.
What was measured:
Mus musculus = details: acute; oral; M; mortality
Bibionidae = details: chronic/long-term; duration: 28 days; development
Serinus canaria = details: acute; oral; unspecified; mortality
Tagia sp. = details: chronic/long-term; reproduction
Neomysis kadiakensis = details: chronic/long-term; duration: 28 days; development
Rattus norvegicus = details: clinical signs
Apis mellifera = details: acute; oral; unspecified; mortality
Hypoaspis aculeifer = details: chronic/long-term; reproduction
Anas platyrhynchos = details: chronic/long-term
Typhlodromus pyri = experiment: LR50; higher = less toxic; details: not reported; mortality

Work on `CC1(C)C(C=C(Cl)Cl)[C@@H]1C(=O)O[C@@H](C#N)c1ccc(F)c(Oc2ccccc2)c1` (stereo partly drawn) [beta-Cyfluthrin] yielded an LD50 (Mus musculus) of 91 mg/kg-day, an NOEC (Bibionidae) of 0.0057 µg/L and an LD50 (Serinus canaria) of 170 mg/kg-day. The NOEC (Tagia sp.) was 0.825 mg/kg, the NOEC (Neomysis kadiakensis) was 0.00041 µg/L and the NOAEL (Rattus norvegicus; reproduction developmental) was 1.39 mg/kg-day. For the same compound, the NOAEL (Rattus norvegicus; short-term, duration: 28 days) was 1 mg/kg-day, the NOAEL (Rattus norvegicus; subchronic, duration: 13 weeks, inhalation) was 0.02 mg/kg-day and the LD50 (Apis mellifera) was 0.05 µg/piece. It also gave an NOEC (Hypoaspis aculeifer) of 0.97 mg/kg, an LC50 (Oncorhynchus mykiss; acute, mortality) of 0.068 µg/L (≈ 0.157 nM) and an NOEC (Oncorhynchus mykiss; chronic/long-term, duration: 58 days, growth) of 0.0042 µg/L. It also gave an NOAEL (Anas platyrhynchos) of 2.6 mg/kg-day and an LR50 (Typhlodromus pyri) of 0.0025 g/ha.
